Source: patent US20160115540A1, “PRODRUGS AND DRUGS” (Biogen MA Inc., priority 2013, published 2016)
Where a name gives a salt, the structure may show the parent alone.

Test system: kidney
Assay: Transcriptional profiling on Affymetrix GeneChips, single dose, naïve mice: kidney
Format: in vivo, C57BL/6 mice
Settings: for FC: 100DMF-vs-Veh, fold change of the probe set/gene named in the row (Affymetrix, naïve single dose); for Number of differentially expressed genes identified: Kidney: Naïve, Single Dose
Experimental: Treated mice were sacrificed at 2, 7, or 12 hours. Tissues (liver, spleen, kidney, jejunum, cortex, hippocampus, striatum and whole blood) were collected and analyzed by transcriptional profiling on mouse Affymetrix GeneChips.
Tissues (liver, spleen, kidney, jejunum, cortex, hippocampus, striatum and whole blood) were collected and analyzed by transcriptional profiling on mouse Affymetrix GeneChips.
Animals were exposed to CO2 and whole blood collected via cardiac puncture. Two 100 μl aliquots of whole blood were collected in 1.5 mL microcentrifuge tubes and snap frozen in liquid nitrogen. Peripheral (liver, spleen, kidney and jejunum) and CNS brain (cerebellum, hippocampus, striatum and cortex) tissues were harvested and snap frozen in liquid nitrogen, with special care taken to collect tissues of similar size and from the same location. All samples were stored at −80° C. until RNA extraction was conducted.
For RNA preparation, frozen tissues were placed in 2 mL RNAse-free 96-well blocks with 1.5 mL QIAzol Lysis Reagent (QIAgen) and a 3.2 mm stainless steel bead (BioSpec Products, Bartlesville, Okla.). Tissues were disrupted for four cycles of 45 seconds in a Mini-Beadbeater (Biospec Products). RNA was extracted in chloroform and the aqueous phase was mixed with an equal volume of 70% ethanol. Extracted RNA was applied to RNeasy 96 plates and purified by the spin method according to the manufacturer's protocol (RNeasy 96 Universal Tissue Protocol, QIAgen, Hilden Germany).
Automated sample amplifications and biotin labelings were carried out using the NuGEN Ovation RNA Amplification system V2 (Cat #3100), Ovation WB reagent (Cat #1300) and Encore Biotin module (Cat #4200) (NuGEN Technologies, Inc, San Carlos, Calif.) according to manufacturer's recommendations using an Arrayplex automated liquid handler (Beckman Coulter, Indianapolis, Ind.). Two micrograms of biotin labeled sscDNA probe were hybridized to Affymetrix GeneChip Affymetrix HT_MG-430_PM plate arrays with modified conditions as described in Allaire et al. Washing and staining of the hybridized arrays were completed as described in the GeneChip Expression analysis technical manual for HT plate arrays using the Genechip® Array Station (Affymetrix, Santa Clara, Calif.) with modifications as described in Allaire et al. The processed GeneChip® plate arrays were scanned using GeneTitan scanner (Affymetrix, Santa Clara, Calif.).
Affymetrix scans were subject to quality control (QC) measures. These tests included a visual inspection of the distribution of raw signal intensities and an assessment of RNA degradation, relative log expression (RLE), and normalized unsealed standard error (NUSE). All sample scans that passed these QC metrics were included in the analysis.
All CEL files were subjected to GC-content-based Robust Multi-array Average (GCRMA) normalization (version 2.20.0) (Irizarry R A, et al. Nucleic Acids Res 2003; 31:e15; Li C, et al. Genome Biol 2001; 2:[…]0032). Expression levels were log (base 2) transformed.
All calculations and analyses were carried out using R (version 2.11.1) and Bioconductor computational tools (Gentleman R. Springer Science+Business Media 2005).

## COC(=O)/C=C/C(=O)OC [DMF, dimethyl fumarate]
100 DMF-vs-Veh, 2 h
  FC Kbtbd11 1431254_PM_at: −1.77
  FC Kbtbd11 1435465_PM_at: −1.50
  FC Kdm6b 1440346_PM_at: 1.52
  FC LOC100502834 1441010_PM_at: −1.53
  FC LOC100503447 1443908_PM_at: −1.72
  FC Lipg 1421262_PM_at: 2.42
  FC Lipg 1450188_PM_s_at: 1.94
  FC Lonrf3 1429863_PM_at: 4.13
  FC Lonrf3 1436200_PM_at: 3.86
  FC Maff 1418936_PM_at: 2.83
  FC Mdm2 1423605_PM_a_at: 1.51
  FC Mdm2 1427718_PM_a_at: 1.66
  FC Med13 1438725_PM_at: 2.02
  FC Mfsd2a 1428223_PM_at: −2.59
  FC Mir17hg 1428694_PM_at: 2.82
  FC Mpp6 1441546_PM_at: 1.62
  FC Mt1 1451612_PM_at: 2.79
  FC Mtch2 1438842_PM_at: 1.67
  FC Mthfd2 1419253_PM_at: 2.06
  FC Mthfd2 1419254_PM_at: 1.54
  FC Mylip 1424988_PM_at: −1.70
  FC Naa16 1429056_PM_at: 1.71
  FC Napsa 1430744_PM_at: −4.53
  FC Nat2 1449981_PM_a_at: −2.01
  FC Nlrp6 1427369_PM_at: −1.52
  FC Ntn4 1450512_PM_at: −1.67
  FC Nufip2 1435632_PM_at: 1.57
  FC Osgin1 (1424022_PM_at): 4.63
  FC Ovol1 1419051_PM_at: −1.60
  FC P4ha1 1452094_PM_at: 1.56
  FC Paip1 1441955_PM_s_at: 1.61
  FC Pank1 1429813_PM_at: −1.59
  FC Pgd 1423706_PM_a_at: 1.61
  FC Pgd 1438627_PM_x_at: 1.50
  FC Pgd (1436771_PM_x_at): 1.52
  FC Pgd (1437380_PM_x_at): 1.53
  FC Phf23 1428997_PM_at: 1.72
  FC Phip 1438535_PM_at: 1.50
  FC Plekhf2 1423862_PM_at: 1.54
  FC Plk3 1434496_PM_at: 3.14
  FC Polr3e 1429456_PM_a_at: −1.69
  FC Ppm1k 1441988_PM_at: −1.62
  FC Ppp1r15b 1436366_PM_at: 1.72
  FC Pppde1 1425185_PM_at: 1.94
  FC Pppde1 1451621_PM_at: 1.65
  FC Pprc1 1426381_PM_at: 1.74
  FC Prkar2b 1438664_PM_at: 2.43
  FC Prr5 1451463_PM_at: 1.65
  FC Psme4 1443116_PM_at: 1.56
  FC Rg9mtd2 1435035_PM_at: 1.82
  FC Rhebl1 1447818_PM_x_at: −1.57
  FC Rhebl1 1451516_PM_at: −2.01
  FC Riok2 1423481_PM_at: 1.62
  FC Rwdd2a 1428963_PM_at: 2.54
  FC Siah2 1448170_PM_at: 1.71
  FC Slc1a4 1423549_PM_at: 1.52
  FC Slc7a13 1431740_PM_at: −2.60
  FC Slc20a1 1448568_PM_a_at: 2.07
  FC Slc36a2 1436521_PM_at: 4.63
  FC Slc38a2 1426722_PM_at: 2.05
  FC Slc40a1 1448566_PM_at: 1.71
  FC Snhg1 1433674_PM_a_at: 1.62
  FC Snhg1 1433675_PM_at: 1.69
  FC Snx16 1438803_PM_s_at: 1.60
  FC Spry4 1440867_PM_at: 1.71
  FC Spry4 1445669_PM_at: 1.54
  FC Sqstm1 1450957_PM_a_at: 1.69
  FC Srsf7 1436871_PM_at: 1.57
  FC Srxn1 (1419942_PM_at): 1.62
  FC Srxn1 (1426875_PM_s_at): 1.59
  FC Susd3 1428975_PM_at: −1.51
  FC Syn3 1435311_PM_s_at: −1.73
  FC Taf15 1438130_PM_at: 1.59
  FC Them4 1431140_PM_at: 1.80
  FC Tmco6 1451692_PM_at: −1.57
  FC Tmem26 1435409_PM_at: −1.85
  FC Tmem26 (1434583_PM_at): −1.66
  FC Tmem88b 1436974_PM_at: −2.24
  FC Tnfaip3 1433699_PM_at: −1.83
  FC Tnfsf10 1439680_PM_at: −1.52
  FC Trim7 1439352_PM_at: −1.54
  FC Txnrd1 1421529_PM_a_at: 1.53
  FC Txnrd1 (1424487_PM_x_at): 1.99
  FC Ubiad1 1424213_PM_at: −1.61
  FC Ubxn7 1435912_PM_at: 1.51
  FC Vps37b 1424380_PM_at: 1.56
  FC Zbtb2 1434901_PM_at: 2.52
  FC Zfp30 1449813_PM_at: −1.55
  FC Zfp39 1441198_PM_at: −1.64
  FC Zfp93 1418955_PM_at: −1.74
  FC Zfp189 1425287_PM_at: 1.51
  FC Zfp295 1425305_PM_at: 2.68
  FC Zfp295 1441973_PM_at: 2.08
  FC Zfp759 1452623_PM_at: −1.65
  FC Zswim6 1434967_PM_at: 1.63
7 h
  FC: −1.82
12 h
  FC: 1.82
KIDNEY, 100 DMF-vs-Veh, 2 h
  FC Adm (1416077_PM_at): 1.56
  FC Bhlhe40 (1418025_PM_at): 1.59
  FC Cyr61 (1416039_PM_x_at): 2.43
  FC Dbf4 (1418334_PM_at): 2.08
  FC Ddit3 (1417516_PM_at): 3.97
  FC Dnaja1 (1416288_PM_at): 1.69
  FC Dnaja4 (1418591_PM_at): 2.05
  FC Dnaja4 (1418592_PM_at): 1.87
  FC Dnajb1 (1416755_PM_at): 3.03
  FC Dnajb1 (1416756_PM_at): 4.36
  FC Dusp6 (1415834_PM_at): 1.52
  FC Dusp16 (1418401_PM_a_at): 1.50
  FC Egr1 (1417065_PM_at): 4.60
  FC Gclm 1418627_PM_at: 1.51
  FC Hbegf (1418349_PM_at): 2.03
  FC Hbegf (1418350_PM_at): 2.21
  FC Ier2 (1416442_PM_at): 1.75
  FC Ifrd1 (1416067_PM_at): 1.52
  FC Igfbp1 (1418918_PM_at): −2.89
  FC Nab2 (1417930_PM_at): 2.74
  FC Nasp (1416042_PM_s_at): 1.62
  FC Nfil3 (1418932_PM_at): 2.29
  FC Pmaip1 (1418203_PM_at): 1.68
  FC Ppp2r3c (1417479_PM_at): 1.59
  FC Rcan1 (1416600_PM_a_at): 1.51
  FC Sertad1 (1417406_PM_at): 2.06
  FC Sirt1 (1418640_PM_at): 1.68
  FC Slc22a4 (1417639_PM_at): −1.51
  FC Tnfrsf12a 1418571_PM_at: 2.37
  FC Tnfrsf12a 1418572_PM_x_at: 2.33
  FC Tnnc1 (1418370_PM_at): 1.89
  FC Txnip (1415997_PM_at): −1.73
  FC Zfand2a (1415940_PM_at): 1.55
  FC Zfand5 (1416084_PM_at): 1.63
  FC Zfand5 (1416085_PM_s_at): 1.68
Kidney
  Number of genes, DMF Only / MMF Only: 61
Kidney, 2 hr
  Asns (1451095_PM_at) differential expression: 3.03
  Cbr3 (1427912_PM_at) differential expression: 3.04
  Gdf15 (1418949_PM_at) differential expression: 5.39
  Mthfd2 (1419253_PM_at) differential expression: 2.06
100 mpk DMF-vs-100 mpk MMF, 2 h after last dosing
  Number of differentially expressed genes identified: Kidney: 1
100 mpk DMF-vs-100 mpk MMF, 7 h after last dosing
  Number of differentially expressed genes identified: Kidney: 1
100 mpk DMF-vs-100 mpk MMF, 12 h after last dosing
  Number of differentially expressed genes identified: Kidney: 2
100 mpk, vs Vehicle, 2 h after last dosing
  Number of differentially expressed genes identified: Kidney: 331
100 mpk, vs Vehicle, 7 h after last dosing
  Number of differentially expressed genes identified: Kidney: 93
100 mpk, vs Vehicle, 12 h after last dosing
  Number of differentially expressed genes identified: Kidney: 100
kidney, 7 hr
  Asns (1451095_PM_at) differential expression: 1.92
  Cbr3 (1427912_PM_at) differential expression: 5.88
  Gdf15 (1418949_PM_at) differential expression: 1.75
  Mthfd2 (1419253_PM_at) differential expression: 1.65
kidney, 12 hr
  Asns (1451095_PM_at) differential expression: 2.65
  Cbr3 (1427912_PM_at) differential expression: 5.67
  Gdf15 (1418949_PM_at) differential expression: 1.77
  Mthfd2 (1419253_PM_at) differential expression: 1.60
kidney, 100DMF-vs-100MMF, 2 h
  FC 1439640_PM_at (no gene symbol): 1.54
kidney, 100DMF-vs-100MMF, 7 h
  FC Nr1d1 (1426464_PM_at): 1.56
kidney, 100DMF-vs-100MMF, 12 h
  FC 1441333_PM_at (no gene symbol): 1.91
  FC C76628 (1420187_PM_at): 1.59
